Measured values taken from patent US7858738B2, “Synthetic human peptides and pharmaceutical compositions comprising them for the treatment of systemic lupus erythematosus” (Yeda Research and Development Co., Ltd., priority 2001, dated 2010).

How the values were obtained:
[1] = system: (NZB×NZW)F1 mice; experiment: Treatment of established SLE-like disease in (NZB×NZW)F1 mice; assay type: in vivo; settings: 300 μg/mouse, age 7 months
Description: (§1) Induction and treatment of experimental SLE. In order to induce experimental SLE, BALB/c mice were immunized with 1-2 μg of the human mAb 16/6Id and boosted 3 weeks later. For the prevention of experimental SLE, mice were given hCDR1 or hCDR3 (mCDR1 or revmCDR1 as control peptide in Example 12) intravenously (i.v.) or s.c. concomitant with the immunization, and were injected weekly thereafter for 5 weeks. Treatment of an established disease started three and a half months following disease induction with the 16/6Id, when clinical manifestations were already observed. In Example 12, mice received 10 weekly injections (i.v. or s.c.) of mCDR1 or revmCDR1 at a dose of 100 μg/mouse. Prevention and treatment of SLE-like disease in (NZB×NZW)F1 mice with the hCDR1 or mCDR1 peptide. For prevention of SLE, mice at the age of 2 months, before disease manifestations are observed, were injected s.c. with hCDR1 (or mCDR1 in Example 12, 250 μg/mouse) once a week for 10 weeks. To treat an established disease, mice at the age of 5-7 months were injected with hCDR1 (in Example 12, mCDR1 s.c., 250 μg/mouse) once a week for 10 weeks. Proliferative Responses. PBL were isolated from heparinized venous blood by Ficoll-Hypaque (Pharmacia) density-gradient centrifugation. All assays were performed, in triplicate, in flat-bottomed microtiter plates (Falcon, Becton Dickinson, Oxmard, Calif., USA) in which 2×10^5 PBL were cultured in enriched RPMI-1640 as described (Dayan et al., 2000). The PBL were exposed to various concentrations (0.1-40 μg/well) of the human anti-DNA 16/6Id mAb with and without the addition of the various CDR-based peptides at a concentration of at least 10-fold excess over that of the 16/6Id. Phytohemagglutinin (PHA; 2 μg/well) was used as a control for culture conditions at each experiment. The cultures were incubated in 7.5% CO2 at 37° C. for 6 days. Eighteen hours before the cells were harvested, [^3H]-thymidine (0.5μ Ci of 5 Ci/mmol) (Nuclear Research Center, Negev, Israel) was added to all cultures. Results are expressed as the mean thymidine incorporation in counts per minute (CPM) of triplicate culture±SD, or as stimulation index (S.I.; the ratio of mean CPM at the optimal concentration of the human 16/6Id to the mean CPM in the presence of medium alone). A S.I.≧2 was considered a positive response (Dayan et al., 2000). Inhibition (the ratio of mean CPM in the presence of the 16/6Id and various CDR-based peptides to the mean CPM with the 16/6Id without the CDR-based peptide) above 50% was considered positive. Induction of Cytokine Production. Mice that were immunized with the human 16/6Id mAb and either treated or not with the CDR-based peptide, were killed at different periods during or after treatment with the peptide. Splenocytes and lymph node cells (LNC) were harvested and incubated (5×10^6/ml) in the presence of the 16/6Id. Supernatants were collected after 48 and 72 h. Assessment of Cytokines in the Supernatants. Supernatants were collected 48 hours following the initiation of the cultures and stored at −70° C. Measurements of IL-2, IL-10, IFN-γ, and TNF-α were performed by ELISA by using the relevant standards, capture and detecting Abs (Pharmingen) according to the manufacturer's instructions. TGF-β was determined by an ELISA. Briefly, plates were coated with the recombinant human TGF-β1 sRIII/Fc chimera (R & D Systems Inc., Minneapolis, Minn., USA), and the second Ab used was the biotinylated anti-human TGF-β1 antibody (R & D Systems Inc.). The substrate solution used was TMB color Reagent (Helix Diagnostics, West Sacramento, Calif.), and enzyme activity was evaluated by using 570- and 630-nm filters. Detection of SLE-Associated Clinical and Pathological Manifestations. Proteinuria was measured semiquantitatively by using Combistix kit (Ames Division, Bayer Diagnostics, Newbury, U.K.). White blood cells (WBC, for leukopenia) were counted after a 10-fold dilution of heparinized blood in distilled water containing 1% acetic acid (vol/vol). […]

[2] = system: BALB/c mice; experiment: Treatment of 16/6Id-induced experimental SLE in BALB/c mice; assay type: in vivo; settings: Table 12, 300 μg/mouse weekly
Description: as §1

[3] = system: (NZB×NZW)F1 mice; experiment: Transfer of splenocytes of peptide-treated mice into (NZB×NZW)F1 mice with full-blown disease; assay type: in vivo; settings: Table 14 (repeat experiment), recipients of 20 × 10^6 spleen cells from treated mice
From the text: It was of importance to investigate whether the beneficial effects of treatment with hCDR1, that are manifested by the down-regulation of disease manifestations, can be transferred by spleen cells of treated mice. To this end, we have performed an experiment in which 8-month old (NZB×NZW)F1 mice, that suffer already from the full-blown lupus-like disease, were divided into 2 groups. Group 1 was not treated and mice of group 2 were transferred with 20×10^6 spleen cells of 3-month old (NZB×NZW)F1 mice that were injected 3 times (s.c., every other day) with 300 μg/mouse of hCDR1. All splenocytes were injected intraperitoneally. Mice were tested for anti-dsDNA autoantibody production, disease manifestations, and were sacrificed 4 weeks after cell transfer.
The experiment was repeated a few more times using revhCDR1 as control.

[4] = system: PBL of SLE patients; experiment: Proliferative response of PBL of SLE patients to the human 16/6Id mAb; assay type: cell-based; settings: PBL of one SLE patient; for inhibition of the proliferative responses of PBL to human 16/6Id mAb: FIG. 7, reversed murine peptides as controls
Description: as §1

[5] = system: MMP-9; experiment: MMP-9 activity in sera of (NZB×NZW)F1 mice (gel zymography); assay type: in vivo; settings: for activity of MMP-9 in the sera: treatment of sick mice, FIG. 20B right
Description: as §1, with “A S.I.≧2 was considered a positive response (Dayan et al., 2000). Inhibition (the ratio of mean CPM in the presence of the 16/6Id and various CDR-based peptides to the mean CPM with the 16/6Id without the CDR-based peptide) above 50% was considered positive. Induction of Cytokine Production. Mice that were immunized with the human 16/6Id mAb and either treated or not with the CDR-based peptide, were killed at different periods during or after treatment with the peptide. Splenocytes and lymph node cells (LNC) were harvested and incubated (5×10^6/ml) in the presence of the 16/6Id. Supernatants were collected after 48 and 72 h. Assessment of Cytokines in the Supernatants. Supernatants were collected 48 hours following the initiation of the cultures and stored at −70° C. Measurements of IL-2, IL-10, IFN-γ, and TNF-α were performed by ELISA by using the relevant standards, capture and detecting Abs (Pharmingen) according to the manufacturer's instructions.” left out, “Briefly, plates were coated with the recombinant human TGF-β1 sRIII/Fc chimera (R & D Systems Inc., Minneapolis, Minn., USA), and the second Ab used was the biotinylated anti-human TGF-β1 antibody (R & D Systems Inc.).” left out, “Detection of SLE-Associated Clinical and Pathological Manifestations.” left out

[6] = system: MMP-3; experiment: MMP-3 levels in sera of 16/6Id immunized BALB/c mice (Western blot); assay type: in vivo; settings: prevention and treatment protocols, 100 μg/mouse; FIG. 21A
Description: (§2) Induction and treatment of experimental SLE. In order to induce experimental SLE, BALB/c mice were immunized with 1-2 μg of the human mAb 16/6Id and boosted 3 weeks later. For the prevention of experimental SLE, mice were given hCDR1 or hCDR3 (mCDR1 or revmCDR1 as control peptide in Example 12) intravenously (i.v.) or s.c. concomitant with the immunization, and were injected weekly thereafter for 5 weeks. Treatment of an established disease started three and a half months following disease induction with the 16/6Id, when clinical manifestations were already observed. In Example 12, mice received 10 weekly injections (i.v. or s.c.) of mCDR1 or revmCDR1 at a dose of 100 μg/mouse. Prevention and treatment of SLE-like disease in (NZB×NZW)F1 mice with the hCDR1 or mCDR1 peptide. […] Results are expressed as the mean thymidine incorporation in counts per minute (CPM) of triplicate culture±SD, or as stimulation index (S.I.; the ratio of mean CPM at the optimal concentration of the human 16/6Id to the mean CPM in the presence of medium alone). […] TGF-β was determined by an ELISA. […] The substrate solution used was TMB color Reagent (Helix Diagnostics, West Sacramento, Calif.), and enzyme activity was evaluated by using 570- and 630-nm filters. […] Proteinuria was measured semiquantitatively by using Combistix kit (Ames Division, Bayer Diagnostics, Newbury, U.K.). […]

[7] = system: MMP-9; experiment: MMP-9 activity in sera of 16/6Id immunized BALB/c mice; assay type: in vivo; settings: for MMP-9 activity in sera: prevention and treatment protocols, 100 μg/mouse, FIG. 21B
Description: as §2, with “peptide. For prevention of SLE, mice at the age of 2 months, before disease manifestations are observed, were injected s.c. with hCDR1 (or mCDR1 in Example 12, 250 μg/mouse) once a week for 10 weeks. To treat an established disease, mice at the age of 5-7 months were injected with hCDR1 (in Example 12, mCDR1 s.c., 250 μg/mouse) once a week for 10 weeks. Proliferative Responses. PBL were isolated from heparinized venous blood by Ficoll-Hypaque (Pharmacia) density-gradient centrifugation.” for “peptide.”, “U.K.). White blood cells (WBC, for leukopenia) were counted after a 10-fold dilution of heparinized blood in distilled water containing 1% acetic acid (vol/vol).” for “U.K.).”

[8] = system: MMP-3; experiment: MMP-3 levels in sera of (NZB×NZW)F1 mice (Western blot); assay type: in vivo
Description: as §2, with “peptide. For prevention of SLE, mice at the age of 2 months, before disease manifestations are observed, were injected s.c. with hCDR1 (or mCDR1 in Example 12, 250 μg/mouse) once a week for 10 weeks. To treat an established disease, mice at the age of 5-7 months were injected with hCDR1 (in Example 12, mCDR1 s.c., 250 μg/mouse) once a week for 10 weeks. Proliferative Responses. PBL were isolated from heparinized venous blood by Ficoll-Hypaque (Pharmacia) density-gradient centrifugation.” for “peptide.”, “U.K.). White blood cells (WBC, for leukopenia) were counted after a 10-fold dilution of heparinized blood in distilled water containing 1% acetic acid (vol/vol).” for “U.K.).”

[9] = system: MMP-3; experiment: MMP-3 immunostaining of kidney sections of 16/6Id immunized BALB/c mice; assay type: in vivo; settings: prevention and treatment experiments; glomeruli and interstitium; FIG. 22
Description: as §2

[10] = system: MMP-9; experiment: MMP-9 immunostaining of kidney sections of 16/6Id immunized BALB/c mice; assay type: in vivo; settings: prevention and treatment experiments; glomeruli and interstitium; FIG. 22
Description: as §2

[11] = system: T cell priming; settings: administered in PBS; Waisman et al., 1997; cited from earlier work
[12] = system: SLE prone mice (NZB×NZW) F1 or MRL/lpr/lpr; settings: Eilat et al., 2000 and 2001; cited from earlier work

GIWEEGKGPPQRIWSWYYG (Synthetic peptide prepared in the reversed order of SEQ ID NO 6.) [revhCDR1, control peptide synthesized in the reversed order of hCDR1, reference compound]
Proteinuria g/L ± SEM ([1]; following treatment No 5, untreated 2.65 ± 1.76): 6.94 ± 2.53 g/L | Proteinuria g/L ± SEM ([1]; following treatment No 7, untreated 3.89 ± 2.73): 6.76 ± 2.91 g/L | Proteinuria g/L ± SEM ([1]; following treatment No 9, untreated 7.55 ± 3.95): 5.99 ± 3.08 g/L | Anti-dsDNA antibodies 1:1250, Mean ± SD ([2]; 16/6Id alone 0.47 ± 0.3): 0.35 ± 0.3 | Proteinuria g/l, Mean ± SD ([2]; 16/6Id alone 0.58 ± 0.34): 0.8 ± 0.3 g/L | Anti-16/6 Id antibodies 1:10000, Mean ± SD ([2]; 16/6Id alone 0.89 ± 0.1): 0.95 ± 0.13 | Intensity of ICD in kidneys, Mean ± SD ([2]; 16/6Id alone 1.6 ± 0.55): 0.85 ± 0.75 | WBC/mm^3, Mean ± SD ([2]; 16/6Id alone 2800 ± 300): 4180 ± 831 /mm^3 | I.C.D ± SEM ([3]; non-treated 2.3 ± 0.26): 1.7 ± 0.23 | Proteinuria g/L ± SEM ([3]; non-treated 10.9 ± 3.05): 5.38 ± 2.34 g/L

GIWELSKEPSQKVWQMYYGT (Synthetic peptide prepared in the reversed order of SEQ ID NO 1.) [revmCDR1, control peptide synthesized in the reversed order of mCDR1]
inhibition of the proliferative responses of PBL to human 16/6Id mAb [4]: failed to inhibit significantly | activity of MMP-9 in the sera [5]: not | levels of MMP-3 in sera [6]: did not affect | MMP-9 activity in sera [7]: did not affect

SGQGWYDMAYPEWLFRACYY (Synthetic peptide prepared in reversed order of SEQ ID NO 3.) [revmCDR3, control peptide synthesized in the reversed order of mCDR3, reference compound]
inhibition of the proliferative responses of PBL to human 16/6Id mAb [4]: failed to inhibit significantly

TGYYMQWVKQSPEKSLEWIG [mCDR1]
two lower bands of MMP-3 in the serum ([8]; prevention protocol: 250 μg/mouse s.c. weekly for 10 weeks from age 2 months, FIG. 20A): reduction | levels of MMP-3 in the sera ([8]; treatment of sick mice, FIG. 20A right): specifically down-regulated | MMP-9 activity in the serum ([5]; prevention protocol: 250 μg/mouse s.c. weekly for 10 weeks from age 2 months, FIG. 20B): reduction | activity of MMP-9 in the sera [5]: specifically down-regulated | levels of MMP-3 in sera [6]: could down regulate | activity of sera comparable to pure active MMP-9 ([7]; MMP-9 activity assay system, preliminary, unimmunized 7 ng/ml, 16/6Id immunized 16 ng/ml): 8.5 ng/mL | MMP-9 activity in sera [7]: could down regulate | expression levels of MMP-3 in the kidneys [9]: down-regulated | expression levels of MMP-9 in the kidneys [10]: down-regulated | T cell priming to the appropriate mCDR peptide or to the whole anti-DNA 16/6Id mAb [11]: inhibiting T cell priming | prevention or treatment of SLE induced by human 16/6Id mAb or spontaneous [12]: either prevent or treat an already established SLE

YYCARFLWEPYAMDYWGQGS (Murine) [mCDR3, murine peptide based on CDR3 of the VH chain of murine mAb 5G12]
inhibition of the proliferative responses of PBL to the human 16/6Id mAb ([4]; FIG. 6): did not inhibit | T cell priming to the appropriate mCDR peptide or to the whole anti-DNA 16/6Id mAb [11]: inhibiting T cell priming | prevention or treatment of SLE induced by human 16/6Id mAb or spontaneous [12]: either prevent or treat an already established SLE
